ChEMBL document CHEMBL3886909, “7-hydroxy-spiropipiperidine indolinyl antagonists of P2Y1 receptor” (2016)

What was measured:
P2Y purinoceptor 1 [1] = molecular target: T1, P2Y purinoceptor 1 (Homo sapiens, UniProt P47900); assay: Scintillation Proximity Assay (SPA): A SPA membrane binding assay was used to identify inhibitors of [33P] […] Binding reactions were performed in 384-well OptiPlates (PerkinElmer Life Sciences, Cat #6007299) in a volume of 50 uL containing 15 fmol of P2Y1 receptor (1.7 ug of total protein), 0.3 nM [33P] […] Reactions were allowed to proceed to completion at room temperature for 1 hour followed by centrifugation of the plate for 5 min. About 40 uL of the aqueous soluttion was aspirated. Plates were sealed and the [33P]
T1 sequence (P47900 whole entry): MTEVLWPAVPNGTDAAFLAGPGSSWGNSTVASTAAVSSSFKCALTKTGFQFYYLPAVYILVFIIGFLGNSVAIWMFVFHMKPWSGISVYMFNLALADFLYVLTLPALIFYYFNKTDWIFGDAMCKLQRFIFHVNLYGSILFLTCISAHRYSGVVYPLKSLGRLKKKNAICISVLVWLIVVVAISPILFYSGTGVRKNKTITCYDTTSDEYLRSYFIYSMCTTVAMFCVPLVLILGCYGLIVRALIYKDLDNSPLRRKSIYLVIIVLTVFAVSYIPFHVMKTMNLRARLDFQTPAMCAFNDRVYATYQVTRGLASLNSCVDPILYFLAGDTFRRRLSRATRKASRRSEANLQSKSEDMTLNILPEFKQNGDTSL

P2Y purinoceptor 1 [2] = molecular target: T1, P2Y purinoceptor 1; assay: Binding Assay: Binding reactions were performed in WGA FLASHPLATEs (PerkinElmer Life Sciences, Cat # SMP105A) in a volume of 200 uL containing 45 fmol of P2Y1 receptor (5 ug of total protein), 0.5 nM [33P] […] Reactions were allowed to proceed to completion at room temperature for 1 hour and then the aqueous solution aspirated.

SMILES	Ki (P2Y purinoceptor 1 [1]) [nM]	Ki (P2Y purinoceptor 1 [2]) [nM]
CC(C)(C)CN1CCC2(CC1)CN(c1ccccc1NC(=O)Nc1ccc(OC(F)(F)F)cc1)c1c(O)ccc(-c3nc4cc(Cl)ccc4s3)c12	137	–
CC(C)(C)CN1CCC2(CC1)CN(c1ccccc1NC(=O)Nc1csc(Cl)n1)c1c(O)ccc(-c3nc4cccc(Cl)c4s3)c12	18.4	–
CC(C)(C)CN1CCC2(CC1)CN(c1ccccc1NC(=O)Nc1ccc(OC(F)(F)F)cc1)c1c(O)cc(F)cc12	–	9.1
CC(C)(C)CN1CCC2(CC1)CN(c1ccccc1NC(=O)Nc1nc3ccc(F)cc3s1)c1c(O)ccc(-c3nc4ccc(Cl)cc4s3)c12	104	–
CC(C)N1CCC2(CC1)CN(c1ccccc1NC(=O)Nc1ccc(OC(F)(F)F)cc1)c1c(O)ccc(-c3nc4cc(Cl)ccc4s3)c12	24	–
CC(C)(C)CN1CCC2(CC1)CN(c1ccccc1NC(=O)Nc1nc3ccc(Cl)nc3s1)c1c(O)ccc(-c3nc4cc(Cl)ccc4s3)c12	53.7	–
CC(C)(C)CN1CCC2(CC1)CN(c1ccccc1NC(=O)Nc1csc(Cl)n1)c1c(O)cc(F)c(Cl)c12	19	–
CC(C)CN1CCC2(CC1)CN(c1ccccc1NC(=O)Nc1ccc(OC(F)(F)F)cc1)c1c(O)ccc(-c3nc4cc(Cl)ccc4s3)c12	9.6	–
CC(C)(C)CN1CCC2(CC1)CN(c1ccccc1NC(=O)Nc1nc3ccc(F)cc3s1)c1c(O)ccc(-c3nc4cc(Cl)ccc4s3)c12	1.2	–
CC(C)(C)CN1CCC2(CC1)CN(c1ccccc1NC(=O)Nc1ccc(OC(F)(F)F)cc1)c1c(O)ccc(-c3nc4ccc(Cl)cc4s3)c12	73.4	–
CC(C)(C)CN1CCC2(CC1)CN(c1ccccc1NC(=O)Nc1nc3ccc(Cl)cc3s1)c1c(O)cc(F)c(Cl)c12	23.1	–
CC(C)(C)CN1CCC2(CC1)CN(c1ccccc1NC(=O)Nc1csc(Cl)n1)c1c(O)ccc(-c3nc4cc(Cl)ccc4s3)c12	9.1	–
CC(C)(C)CN1CCC2(CC1)CN(c1ccccc1NC(=O)Nc1nc3ccc(Cl)nc3s1)c1c(O)ccc(-c3nc4cc(C(F)(F)F)ccc4s3)c12	24.6	–
